# “Also recorded” adds a separate entry of the source.
# Key:
# [1] = In vivo insulin delivery and bioavailability experiment, oral enteric-coated capsule; design: species or system Sprague-Dawley rats
# Protocol: […] Insulin dosage was estimated to be ˜120 I.U. The capsule was mechanically guided across the duodenum and rat-tail plasma samples were collected for a period of 3 hours (at specified periodic intervals). Blood glucose measurement was made with Glucometer and plasma insulin concentration via ELISA.
# [2] = test system: pig intestine (gut epithelium); experiment: Binding of conjugate system to the pig intestine (gut epithelium) ex vivo
# Protocol: Biological functionality and compliance was tested utilizing intestinal tissue from pigs. A cross section of the pig intestine (1 cm^2)was cleaned and subjected to the conjugate (1 mg/ml; 3.65 mM). After incubation (1 hour) of said tissue with the conjugate system, 4-hydroxybutyl L-tryptophanate, the tissue was washed and excess mucous layer removed by gentle physical exfoliation (scrapping via a spatula).
# CT26 cells [3] = experiment: Uptake of Oxaliplatin by CT26 cells measured by ICP-MS; type: cell-based, mouse; conditions: for enhancement of OxPt internalization versus OxPt alone: 10 μM OxPt, 24 hours
# Protocol: CT26 cells were seeded in 24-well plate (100.000 cells/mL/well) exposed to Oxaliplatin (Ox-Pt, 10 μM and 30 μM) with/and without conjugate the molar ratio of 1:1, 1:3 and 3:1 respectively. After 1, 4, 24 hours of incubation, media was discarded and the cells were washed with PBS twice, once with heparin (to remove anything associated externally with the cell membrane) and once more with PBS. Then the cells were detached from the wells using trypsin and cells were counted. Finally, each sample was diluted in HCl acid and further diluted in 2% HCl with (0.5 ppb Ir), then Pt content was measured in the ICP-MS.
# CT26 cells [4] = experiment: Internalization of resiquimod (R848) in CT26 cells detected by HPLC; type: cell-based, mouse
# Protocol: CT26 cells were seeded in 24-well plates (10^5 cells/well). After 24 hours the cells were treated with either 100 or 300 μM concentration of resiquimod (R848) alone or in combination with the 4-hydroxybutyl L-tryptophanate conjugate. After 4 and 24 hours incubation cells were washed with cold PBS and with heparin solution (0.1 mg/mL heparin in PBS), and detached from the wells using trypsin. Then the cells were diluted in acetonitrile with 0.1% TFA and the amount of R848 was detected by HPLC.
# CT26 colon cancer cells = experiment: Internalization of INS-FITC in CT26 cells, flow cytometry and fluorescent imaging; type: cell-based, mouse
# Protocol: CT26 colon cancer cells were seeded in 24-well plates at 100.000 cells/well/mL. After 24 hours, cells were treated with INS-FITC at 10 μM or 30 μM concentration either alone or in combination with the conjugate 4-hydroxybutyl L-tryptophanate in three different molar ratios (1:1, 1:3 or 3:1). Treatments were co-incubated with the CT26 cells for 1 h, 4 h or 24 h. Before observation, cells were washed several times with PBS, and with heparin, to ensure removal of compounds that might remain softly bound to cell membrane and not internalized. Then the washed cells were detached from the wells using trypsin, centrifuged and re-suspended in PBS for analysis by flow cytometry. In flow the cells were gated as singlets (single cell events) and then the fluorescence was recorded for each event in the specific FL channel were the compound has its emission max (INS-FITC: FL1 (525+/−40).
# CT-26 cells [5] = experiment: Cellular internalization of insulin (Novorapid) in CT-26 cells, MALDI-TOF; type: cell-based, mouse; conditions: commercial insulin (20 μl) + conjugate (20 μl), 4 hours
# Protocol: MALDI-TOF is a standard technique for analysis of molecules based upon their mass/charge (m/z) ratio. In this study, the inventors exposed CT-26 cells with commercial insulin (20 μl) and conjugate system, 4-hydroxybutyl L-tryptophanate (20 μl). After 4 hours, the cells were sonicated (ruptured) and cell-debris removed; Resulting supernatant was subjected to MALDI analysis.
# CT-26 cells [6] = experiment: Internalization of Paclitaxel (PTX) in CT-26 cells measured by flow cytometry; type: cell-based, mouse
# Protocol: There is a remarkable increment in the percentage of cells containing PTX when co-administered with the conjugate, especially after 24 hours incubation. (c) depicts the amount of PTX internalization expressed as mean fluorescence intensity (MFI).
# mouse CD-4 (+) T-cells = experiment: Fluorescent tagging of T-cells, confocal Z-stack imaging; type: cell-based; conditions: 100 μL conjugate (1 mg/ml) added to 500 μL cell suspension, 24 hours
# Protocol: 100 μL 4-hydroxybutyl L-tryptophanate conjugate (1 mg/ml) was added to the cell suspension solution (500 μL; 1×10^5 cells/mL) and incubated for 24 hours. Cells were washed with PBS buffer and analyzed via Z-stack imaging was to confirm internalization of the 4-hydroxybutyl L-tryptophanate conjugate. Cell imaging was done for 0, 24, 48 and 72 hours—though 24 hours was found the optimum time frame.
# CT-26 cells [7] = experiment: Ethidium-homodimer internalization in CT-26 cells, fluorescent confocal microscopy; type: cell-based, mouse
# Protocol: CT-26 cells in culture were co-incubated with the conjugate system, 4-hydroxybutyl L-tryptophanate, (1 mg/ml) and Etidium-homodimer (2 μl/ml) for 1 hour and observed under fluorescent confocal microscope. Working ratio was set as 1:3 and two reaction sets comprising of higher (80 μl) loading and standard loading (40 μl ) were performed. Emission bandwidth was set as 490-550nm and 590-680 nm.
smiles,measurement,setting,value
N[C@@H](Cc1c[nH]c2ccccc12)C(=O)OCCCCO [4-hydroxybutyl L-tryptophanate],drop in blood sugar,"[1]; insulin 1.1 mg (~80 I.U) + conjugate 8 mg, within twenty minutes, n=3",~15%
same,drop in blood sugar,"[1]; insulin 1.5 mg (~120 I.U.) + conjugate 0.5 mg, within the first hour, n=2",~20%
same,fluorescence signal on tissue (tissue binding and transmembrane penetration),"[2]; conjugate 1 mg/ml (3.65 mM), 1 hour incubation, tissue washed, excess mucous layer removed",clear fluorescence signal
same,normalized fluorescence intensities on tissue versus controls on glass,"[2]; conjugate 1 mg/ml, 1 hour",higher than controls incubated on a glass sample
same,penetration across mucosal layer and binding to gut epithelium despite repeated washes,[2]; pig intestine with mucus,deeply penetrate across mucosal layer on intestinal epithelium and bind to the tissue
same,enhancement of OxPt internalization versus OxPt alone,CT26 cells [3]; conjugate:OxPt 10:10 molar ratio,37.6%
same,enhancement of OxPt internalization versus OxPt alone,CT26 cells [3]; conjugate:OxPt 30:10 molar ratio,23.5%
same,internalization percentage of OxPt increased to,"CT26 cells [3]; 30 μM OxPt, 10:30 ratio (Conj.:OxPt)",451%
same,Pt signal in CT26 cells compared to OxPt alone,"CT26 cells [3]; combination of OxPt and the conjugate, overall",increased amount of Pt signal
same,Fold increase internalization of resiquimod (R848) compared to R848 alone,"CT26 cells [4]; conjugate (100 μM) + R848 (100 μM), 4 hours, listed as 4-hydroxybutyl L-tryptophanate conjugate",4.9 fold
same,Fold increase internalization of resiquimod (R848) compared to R848 alone,"CT26 cells [4]; conjugate (100 μM) + R848 (100 μM), 24 hours",0.9 fold
same,Fold increase internalization of resiquimod (R848) compared to R848 alone,"CT26 cells [4]; conjugate (100 μM) + R848 (300 μM), 4 hours",1.4 fold
same,Fold increase internalization of resiquimod (R848) compared to R848 alone,"CT26 cells [4]; conjugate (100 μM) + R848 (300 μM), 24 hours",1.8 fold
same,Fold increase internalization of resiquimod (R848) compared to R848 alone,"CT26 cells [4]; conjugate (300 μM) + R848 (100 μM), 4 hours",1.5 fold
same,Fold increase internalization of resiquimod (R848) compared to R848 alone,"CT26 cells [4]; conjugate (300 μM) + R848 (100 μM), 24 hours",1.1 fold
same,fluorescence under fluorescent microscope,"CT26 colon cancer cells; conjugate alone, post 24-hours incubation",No observable fluorescence
same,percentage increase of INS-FITC internalization (MFI) compared to free insulin at the same concentration,"CT26 colon cancer cells; conjugate to insulin 30:10 μM, 24 hours",around 72.3%
same,percentage increase of INS-FITC internalization (MFI),"CT26 colon cancer cells; conjugate:INS-FITC 10:10 μM, 4 hours",20.5%
same,percentage increase of INS-FITC internalization (MFI),"CT26 colon cancer cells; insulin to conjugate 30:10 μM, constant from 4 to 24 hours",11.4%
same,insulin signal in MALDI-TOF of cell supernatant,CT-26 cells [5],clearly distinct
same,"% cells uptake (1 h), CT-26 cells with PTX internalized","CT-26 cells [6]; Conjugate 10 μM + PTX 10 μM, 1 h",4.7%
same,"% cells uptake (4 h), CT-26 cells with PTX internalized","CT-26 cells [6]; Conjugate 10 μM + PTX 10 μM, 4 h",6.2%
same,"% cells with uptake (24 h), CT-26 cells with PTX internalized",CT-26 cells [6]; Conjugate 10 μM + PTX 10 μM,22.1%
same,"% cells uptake (1 h), CT-26 cells with PTX internalized","CT-26 cells [6]; Conjugate 10 μM + PTX 30 μM, 1 h",5.0%
same,"% cells uptake (4 h), CT-26 cells with PTX internalized","CT-26 cells [6]; Conjugate 10 μM + PTX 30 μM, 4 h",6.9%
same,"% cells with uptake (24 h), CT-26 cells with PTX internalized",CT-26 cells [6]; Conjugate 10 μM + PTX 30 μM,29.2%
same,"% cells uptake (1 h), CT-26 cells with PTX internalized","CT-26 cells [6]; Conjugate 30 μM + PTX 10 μM, 1 h",11.2%
same,"% cells uptake (4 h), CT-26 cells with PTX internalized","CT-26 cells [6]; Conjugate 30 μM + PTX 10 μM, 4 h",17.6%
same,"% cells with uptake (24 h), CT-26 cells with PTX internalized","CT-26 cells [6]; Conjugate 30 μM + PTX 10 μM, listed as Conjugate",49.8%
same,"% cells with uptake (24 h), CT-26 cells with PTX internalized","CT-26 cells [6]; Conjugate 30 μM + PTX 10 μM, listed as conjugate",up to 50%
same,Percentage increase in PTX signal (MFI) compared to PTX alone; head: % cells with uptake (24 h),"CT-26 cells [6]; PTX 10 μM, Conjugate:PTX molar ratio 1:1 (10:10)",22.3%
same,Percentage increase in PTX signal (MFI) compared to PTX alone; head: % cells uptake (1 h),"CT-26 cells [6]; PTX 10 μM, Conjugate:PTX molar ratio 1:1, 1 h",6.8%
same,Percentage increase in PTX signal (MFI) compared to PTX alone; head: % cells uptake (4 h),"CT-26 cells [6]; PTX 10 μM, Conjugate:PTX molar ratio 1:1, 4 h",12.4%
same,Percentage increase in PTX signal (MFI) compared to PTX alone; head: % cells uptake (1 h),"CT-26 cells [6]; PTX 10 μM, Conjugate:PTX molar ratio 3:1 (30:10), 1 h",20.6%
same,Percentage increase in PTX signal (MFI) compared to PTX alone; head: % cells uptake (1 h),"CT-26 cells [6]; PTX 10 μM, Conjugate:PTX molar ratio 3:1 (30:10), 1 h, listed as Conjugate",7.8%
same,Percentage increase in PTX signal (MFI) compared to PTX alone; head: % cells uptake (4 h),"CT-26 cells [6]; PTX 10 μM, Conjugate:PTX molar ratio 3:1 (30:10), 4 h",32.4%
same,Percentage increase in PTX signal (MFI) compared to PTX alone; head: % cells uptake (4 h),"CT-26 cells [6]; PTX 10 μM, Conjugate:PTX molar ratio 3:1 (30:10), 4 h, listed as Conjugate",11.4%
same,Percentage increase in PTX signal (MFI) compared to PTX alone; head: % cells with uptake (24 h),"CT-26 cells [6]; PTX 10 μM, Conjugate:PTX molar ratio 3:1 (30:10)",56.2%
same,Percentage increase in PTX signal (MFI) compared to PTX alone; head: % cells with uptake (24 h),"CT-26 cells [6]; PTX 10 μM, Conjugate:PTX molar ratio 3:1 (30:10), listed as Conjugate",27.1%
same,Percentage increase in PTX signal (MFI) compared to PTX alone; head: % cells uptake (1 h),"CT-26 cells [6]; PTX 30 μM, Conjugate:PTX molar ratio 1:3 (10:30), 1 h",20.6%
same,Percentage increase in PTX signal (MFI) compared to PTX alone; head: % cells uptake (4 h),"CT-26 cells [6]; PTX 30 μM, Conjugate:PTX molar ratio 1:3 (10:30), 4 h",32.4%
same,Percentage increase in PTX signal (MFI) compared to PTX alone; head: % cells with uptake (24 h),"CT-26 cells [6]; PTX 30 μM, Conjugate:PTX molar ratio 1:3 (10:30)",27.1%
same,Percentage increase in PTX signal (MFI) compared to PTX alone; head: % cells with uptake (24 h),"CT-26 cells [6]; PTX 30 μM, Conjugate:PTX molar ratio 1:3 (10:30), listed as Conjugate",56.2%
same,"cellular internalization of the conjugate (Z-stack imaging, fluorescence 488 nm)",mouse CD-4 (+) T-cells,confirmed cellular internalization
same,internalization of Ethidium-homodimer (EtDi),"CT-26 cells [7]; EtDi 2 μl/ml co-administered with conjugate 1 mg/ml, 1 hour",confirmed; also recorded: got internalized into the cells
same,increase of EtDi fluorescence (mean pixel intensity of confocal images) compared with EtDi alone,CT-26 cells [7]; EtDi combined with the conjugate,8.67 fold
same,condition of CT-26 cells and membranes after co-administration,"CT-26 cells [7]; conjugate 1 mg/ml + EtDi 2 μl/ml, 1 hour",healthy with fully intact membranes
same,Z-stack analysis at single cell level,CT-26 cells [7]; conjugate + EtDi,internalization of both the EtDi and conjugate
